Laboratory results published in patent US20250282820A1, “PEPTIDE COMPLEX HAVING TRKB BINDING ACTIVITY” (PEPTIDREAM INC, priority 2022, published 2025).
*1 amine or outer side, *2 acyl side, *3 side chain or, on linkers, in order; H or OH if unused. Where a SMILES comes first, the peptide text is derived from it. Bridges are numbered along the chain shown (N, C = ends). Roman numbers before positions name the chains, in order. [ ]: non-standard residue; d: D form. ξ: configuration not given here. X4 = NC(=O)C(CCCCNC(=O)CCOCCC(=O)[*:1])NC(=O)CCOCCOCCOCCOCCOCCCCCOCCOCCN[*:2]; X3 = CC(C)[C@H](CC(=O)[C@H](Cc1cccnc1)N[*:1])C(=O)[*:2]; PEG8 = NCCOCCOCCOCCOCCOCCOCCOCCOCCC(=O)O; 3Pal = N[C@@H](Cc1cccnc1)C(=O)O; X2 = O=C(CCOCCC(=O)[*:2])[*:1]; Thr(3ξ) = CC(O)[C@H](N)C(=O)O; PEG2 = NCCOCCOCCC(=O)O; ξC = NC(CS)C(=O)O

Assays:
Format in all cases: cell-based
[1] = target: T1, TrkB (CellSensor TrkB-NFAT-bla CHO-K1 Cell) (Homo sapiens, UniProt Q16620); assay: pERK1/2 AlphaLISA assay (phosphorylation of ERK) for TrkB agonist activity; conditions: class = peptide concentration giving 50% or more activity; BDNF maximum signal = 100%, no stimulation = 0%; 15 minutes of stimulation
T1 construct: host or cells: CHO-K1 (CellSensor TrkB-NFAT-bla CHO-K1)
T1 sequence (Q16620 32-822): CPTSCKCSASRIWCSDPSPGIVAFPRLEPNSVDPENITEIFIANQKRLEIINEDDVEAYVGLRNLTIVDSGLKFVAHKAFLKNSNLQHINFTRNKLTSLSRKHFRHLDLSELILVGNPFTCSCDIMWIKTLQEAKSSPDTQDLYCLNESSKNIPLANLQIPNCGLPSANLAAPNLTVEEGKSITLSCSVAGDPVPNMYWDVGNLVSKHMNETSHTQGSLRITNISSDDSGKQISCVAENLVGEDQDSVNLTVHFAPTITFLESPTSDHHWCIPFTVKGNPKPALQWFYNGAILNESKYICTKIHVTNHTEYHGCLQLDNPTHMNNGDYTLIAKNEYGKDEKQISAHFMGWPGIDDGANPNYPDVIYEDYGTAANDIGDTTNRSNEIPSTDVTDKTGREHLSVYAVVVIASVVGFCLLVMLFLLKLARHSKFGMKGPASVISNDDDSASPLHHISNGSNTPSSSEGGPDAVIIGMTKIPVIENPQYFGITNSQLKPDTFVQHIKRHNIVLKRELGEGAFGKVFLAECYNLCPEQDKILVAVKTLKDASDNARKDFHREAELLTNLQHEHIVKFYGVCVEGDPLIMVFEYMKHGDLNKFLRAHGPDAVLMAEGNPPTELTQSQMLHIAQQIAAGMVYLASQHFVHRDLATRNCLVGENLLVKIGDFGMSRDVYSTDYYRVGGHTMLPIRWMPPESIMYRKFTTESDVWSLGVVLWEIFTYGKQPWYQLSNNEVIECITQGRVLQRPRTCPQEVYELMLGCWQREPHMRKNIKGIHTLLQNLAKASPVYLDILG
Method: To evaluate the TrkB activation potency of the TrkB agonist peptide of the present invention, the phosphorylation of ERK was examined. CellSensor (registered trademark) TrkB-NFAT-bla CHO-K1 Cell (Invitrogen) was cultured in DMEM, high glucose, GlutaMAX (registered trademark) Supplement, and pyruvate (Thermo), comprising 10% FBS (Thermo) and 1× Non-essential amino acids (Thermo), 25 mM HEPES (Thermo), 50 ug/mL Gentamicin, 5 ug/mL Blasticidin (Thermo), and 200 ug/mL Zeocin (Thermo). After the cells were detached using Accutase (Innovative Cell Technologies), they were seeded into a 96-well plate for adherent cultures at 12,500 cells per well and cultured overnight. The next day, for starvation, the culture solution above was replaced with a nutrient starvation medium comprising 0.1% BSA (Sigma), wherein FBS, Blasticidin, and Zeocin were removed from the culture medium, and culturing was performed for 4 hours. Thereafter, Recombinant Human BDNF Protein (R&D Systems) or a peptide was added, and after 15 minutes of stimulation, cells were lysed in the Lysis Buffer provided with the AlphaLISA SureFire Ultra p-Erk1/2 (Thr202/Tyr204) assay kit (PerkinElmer). The assay was performed according to the kit protocol. The signals were detected using a SpectraMax Paradigm Multi-Mode Microplate Reader (Molecular Devices). The obtained signals were analyzed with GraphPad Prism, and the activity (%) was calculated with the maximum value of the signals induced by BDNF as 100% and a signal with no stimulation as 0%. The peptide with 50% or more activity when 1 nM of the peptide was added was evaluated as A, and the peptide with 50% or more activity when 10 nM of the peptide was added was evaluated as B.
The BDNF was evaluated at 8 points (0.0006 nM to 10 nM) from 10 nM using 4-fold dilutions.
(§1) For dimer structures Nos. 1 to 3, the peptide was evaluated at 1 nM, 10 nM, and 100 nM, and, for other dimer structure numbers, the peptide was evaluated at 0.1 nM, 1 nM, and 10 nM. When creating the concentration dependence curve, the BDNF and the peptides were evaluated at 8 points (0.006 nM to 100 nM) from 100 nM using 4-fold dilutions.

[2] = target: T1, TrkB (CellSensor TrkB-NFAT-bla CHO-K1 Cell); assay: NFAT transcriptional reporter assay for TrkB agonist activity; conditions: class = peptide concentration giving 50% or more activity; BDNF maximum signal = 100%, no stimulation = 0%; 5 hours culture
Method: To evaluate the TrkB activation potency of the TrkB agonist peptide of the present invention, transcriptional activity was examined using transcriptional reporters. The CellSensor (registered trademark) TrkB-NFAT-bla CHO-K1 Cell (Invitrogen) used in the AlphaLISA assay was cultured in the medium above. After the cells were detached using Accutase (Innovative Cell Technologies), the cells were suspended in an assay medium, wherein Blasticidin and Zeocin were removed, then seeded into a 96-well plate for adherent cultures at 12,500 cells per well and cultured overnight. Then, BDNF or a peptide was added thereto, and the cells were further cultured in a CO2 incubator for 5 hours. After the 96-well plate was removed from the incubator and brought to room temperature, a detection reagent (LiveBLAzer (registered trademark)-FRET B/G (CCF4-AM) Substrate Mixture) was added while protected from the light, and the 96-well plate was incubated while protected from the light in a moisture box with a lid for 2 hours. For signal detection, a EnVision 2104 Multilabel Plate Reader (PerkinElmer) was used, and the ratio of fluorescence emission value (460 nm/535 nm) was calculated. The obtained numerical values were analyzed with GraphPad Prism, and the activity (%) was calculated with the maximum value of the signals induced by BDNF as 100% and a signal with no stimulation as 0%. The peptide with 50% or more activity when 1 nM of the peptide was added was evaluated as A, the peptide with 50% or more activity when 10 nM of the peptide was added was evaluated as B, and the peptide with 50% or more activity when 100 nM of the peptide was added was evaluated as C. Those that were not evaluated were listed as not tested.
The BDNF was evaluated at 7 points (0.0024 nM to 10 nM) from 10 nM using 4-fold dilutions.
as §1, with “at […]” for “at 8”, “[…]” for “from 100”

[3] = target: TrkB (Homo sapiens, UniProt Q16620); assay: PathHunter eXpress TrkB Functional Assay (phosphorylation of TrkB); conditions: maximum signal induced by BDNF = 100%; stimulation for 3 hours
TrkB, sequence (Q16620 32-822): as above
Method: To evaluate the TrkB activation potency of the TrkB agonist peptide of the present invention, the phosphorylation of TrkB was examined. The PathHunter (registered trademark) eXpress TrkB Functional Assay kit (DiscoverX; cells, 96-well plate, medium, and detection reagents included) was used and the evaluation was performed according to the attached protocols. The frozen cells were thawed and suspended in the medium, then seeded into a 96-well plate at 10,000 cells per well and incubated for 48 hours. Thereafter, Recombinant Human BDNF Protein (R&D Systems) or a peptide was added, and after stimulation for 3 hours, a detection reagent was added. The reaction was performed while protected from the light at room temperature for 60 minutes, and luminescent signals were measured using a SpectraMax Paradigm Multi-Mode Microplate Reader (Molecular Devices). The obtained signals were analyzed with GraphPad Prism, and the activity (%) was calculated with the maximum value of the signals induced by BDNF as 100% and a signal with no stimulation as 0%.
The BDNF was evaluated at 8 points (0.006 nM to 100 nM) from 100 nM using 4-fold dilutions. The peptide was evaluated in the measurement ranges A to C shown below. • Measurement range A=6 points from 100 nM using 5-fold dilutions (0.032 nM to 100 nM) • Measurement range B=8 points from 100 nM using 4-fold dilutions (0.006104 nM to 100 nM) • Measurement range C=4 points from 10 nM using 10-fold dilutions (0.01 nM to 10 nM)

Compound | pERK (aLISA) Assay Results [1] | NFAT Assay Results [2] | Emax [3] [%]
CC(=O)NCCCC[C@@H]1NC(=O)[C@H](CO)NC(=O)[C@H](Cc2ccc(O)cc2)NC(=O)[C@H]([C@@H](C)O)NC(=O)[C@@H]2CCCN2C(=O)[C@H](Cc2c[nH]c3ccccc23)NC(=O)[C@H](Cc2cccnc2)NC(=O)[C@H](Cc2ccc(O)cc2)NC(=O)[C@@H]2CCCN2C(=O)[C@H](CC(C)C)NC(=O)[C@H](Cc2ccccc2)NC(=O)CSCC(C(=O)NCC(=O)NCCOCCOCCOCCOCCOCCOCCOCCOCCC(=O)N[C@@H](CCCCNC(=O)CCOCCC(=O)NCCCCC(NC(=O)CCOCCOCCOCCOCCOCCCCCOCCOCCNC(=O)CNC(=O)C2CSCC(=O)N[C@@H](Cc3ccccc3)C(=O)N[C@@H](CC(C)C)C(=O)N3CCC[C@H]3C(=O)N[C@@H](Cc3ccc(O)cc3)C(=O)N[C@@H](Cc3cccnc3)C(=O)N[C@@H](Cc3c[nH]c4ccccc34)C(=O)N3CCC[C@H]3C(=O)N[C@@H](C(C)O)C(=O)N[C@@H](Cc3ccc(O)cc3)C(=O)N[C@@H](CO)C(=O)N[C@@H](CCCCNC(C)=O)C(=O)N[C@@H](Cc3cccnc3)C(=O)N[C@@H](C(C)C)C(=O)N[C@@H](CCC(=O)O)C(=O)N2)C(N)=O)C(N)=O)NC(=O)[C@H](CCC(=O)O)NC(=O)[C@H](C(C)C)CC(=O)[C@H](Cc2cccnc2)NC1=O (stereo partly shown) [Dimer Structure No. 40] (I: {CH2CO}-FLPY[3Pal]WPTYSK(Ac)[X3]E[ξC]G[PEG8]K-NH2 / II: {CH2CO}-FLPY[3Pal]WP[Thr(3ξ)]YSK(Ac)[3Pal]VE[ξC]G; linker I:17-II:C via X4; thioether I:N-I:14, II:N-II:15) | B (the peptide with 50% or more activity when 10 nM of the peptide was added was evaluated as B) | B (the peptide with 50% or more activity when 10 nM of the peptide was added was evaluated as B) | –
CC(C)[C@@H]1NC(=O)[C@H](Cc2cccnc2)NC(=O)[C@H](CCC(=O)O)NC(=O)[C@H](CO)NC(=O)[C@H](Cc2ccc(O)cc2)NC(=O)[C@H]([C@@H](C)O)NC(=O)[C@@H]2CCCN2C(=O)[C@H](Cc2c[nH]c3ccccc23)NC(=O)[C@H](Cc2cccnc2)NC(=O)[C@H](Cc2ccc(O)cc2)NC(=O)[C@@H]2CCCN2C(=O)[C@H](CO)NC(=O)[C@H](Cc2ccccc2)NC(=O)CSC[C@@H](C(=O)NCC(=O)NCCOCCOCCC(=O)N[C@@H](CCCCNC(=O)CCOCCC(=O)NCCCC[C@H](NC(=O)CCOCCOCCNC(=O)CNC(=O)[C@@H]2CSCC(=O)N[C@@H](Cc3ccccc3)C(=O)N[C@@H](CO)C(=O)N3CCC[C@H]3C(=O)N[C@@H](Cc3ccc(O)cc3)C(=O)N[C@@H](Cc3cccnc3)C(=O)N[C@@H](Cc3c[nH]c4ccccc34)C(=O)N3CCC[C@H]3C(=O)N[C@@H]([C@@H](C)O)C(=O)N[C@@H](Cc3ccc(O)cc3)C(=O)N[C@@H](CO)C(=O)N[C@@H](CCC(=O)O)C(=O)N[C@@H](Cc3cccnc3)C(=O)N[C@@H](C(C)C)C(=O)N[C@@H](CCC(=O)O)C(=O)N2)C(N)=O)C(N)=O)NC(=O)[C@H](CCC(=O)O)NC1=O [compound 51] (I: {CH2CO}-FSPY[3Pal]WPTYSE[3Pal]VECG[PEG2]K-NH2 / II: {CH2CO}-FSPY[3Pal]WPTYSE[3Pal]VECG[PEG2]K-NH2; linker I:18-II:18 via X2; thioether I:N-I:15, II:N-II:15) | A (The peptide with 50% or more activity when 1 nM of the peptide was added was evaluated as A) | A (The peptide with 50% or more activity when 1 nM of the peptide was added was evaluated as A) | 106
CC(C)C[C@@H]1NC(=O)[C@H](CO)NC(=O)[C@H](Cc2ccc(O)cc2)NC(=O)[C@H]([C@@H](C)O)NC(=O)[C@@H]2CCCN2C(=O)[C@H](Cc2c[nH]c3ccccc23)NC(=O)[C@H](Cc2cccnc2)NC(=O)[C@H](Cc2ccc(O)cc2)NC(=O)[C@@H]2CCCN2C(=O)[C@H](CC(C)C)NC(=O)[C@H](Cc2ccccc2)NC(=O)CSC[C@@H](C(=O)NCC(=O)NCCOCCOCCOCCOCCOCCOCCOCCOCCC(=O)NCCCC[C@H](NC(=O)CCOCCOCCOCCOCCOCCOCCOCCOCCNC(=O)CNC(=O)[C@@H]2CSCC(=O)N[C@@H](Cc3ccccc3)C(=O)N[C@@H](CC(C)C)C(=O)N3CCC[C@H]3C(=O)N[C@@H](Cc3ccc(O)cc3)C(=O)N[C@@H](Cc3cccnc3)C(=O)N[C@@H](Cc3c[nH]c4ccccc34)C(=O)N3CCC[C@H]3C(=O)N[C@@H]([C@@H](C)O)C(=O)N[C@@H](Cc3ccc(O)cc3)C(=O)N[C@@H](CO)C(=O)N[C@@H](CC(C)C)C(=O)N[C@@H](Cc3cccnc3)C(=O)N[C@@H](C(C)C)C(=O)N[C@@H](Cc3c[nH]c4ccccc34)C(=O)N2)C(N)=O)NC(=O)[C@H](Cc2c[nH]c3ccccc23)NC(=O)[C@H](C(C)C)NC(=O)[C@H](Cc2cccnc2)NC1=O [Dimer Structure No. 2] (I: {CH2CO}-FLPY[3Pal]WPTYSL[3Pal]VWCG[PEG8]K-NH2 / II: {CH2CO}-FLPY[3Pal]WPTYSL[3Pal]VWCG[PEG8]; amide I:18-II:C; thioether I:N-I:15, II:N-II:15) | B (the peptide with 50% or more activity when 10 nM of the peptide was added was evaluated as B) | C (the peptide with 50% or more activity when 100 nM of the peptide was added was evaluated as C) | –
